According to patent publication US20190313679A1, “SUGAR-DIPEPTIDE CONJUGATES AS FLAVOR MOLECULES” (NESTEC S.A., priority 2016, published 2019):
Residues, ends and D or L forms follow the SMILES beside them.

Tests used:
Type in all cases: in vivo
[1] = Sensory evaluation of the compounds in water; conditions: 2 g/L in water, 12 panelists
Description: The compounds glutamyl-threonine and 1-deoxy-D-fructosyl-N-glutamyl-threonine were each dissolved and diluted in water in a final concentration of 2 g/L. The solutions were then evaluated by 12 panelists, which were previously screened and selected for their sensory abilities.

[2] = Sensory evaluation of the compounds in a chicken soup base; conditions: chicken soup with 2 g/L versus reference samples, 12 panelists
Description: Chicken soups were prepared by dissolving 6 g chicken base powder (detailed recipe shown in Table 1) and 1 g monosodium glutamate in 500 mL hot water. 1-Deoxy-D-fructosyl-N-glutamyl-threonine was then added separately at 2 g/L final concentrations.
The sensory evaluation was carried out by 12 panelists, previously screened for their sensory abilities. The panelists assessed a maximum of 6 samples per session. They had Vittel water and crackers as mouth cleansers. In all the cases, the panelists were instructed to evaluate the samples for the following attributes: overall flavor persistency, umami, meaty, grilled/popcorn-like, bread-like, boiled chicken, sweet, bitter, and salty. The samples were coded with random 3-digit numbers according to a balanced presentation design, heated at approximately 65° C. and then presented in 40 mL brown plastic containers and under red light to minimize appearance bias (the serving was approximately 25 mL per sample).
The following statistical tests were used to analyze the sensory raw data: First, the Analysis of Variance (ANOVA) with two factors, products (fixed factor) and subject (random factor) was computed in order to determine if there was any difference among samples. The limit of significance (alpha risk) was set at 5%. […] The limit of significance (alpha risk) was set at 5%.

[3] = Comparison between soup bases containing the sugar conjugate and the mixture of glucose and glutamyl-threonine; conditions: soup base with 2 g/L (4.57 mmol/L) versus reference soup with same molar glucose and glutamyl-threonine, 6 panelists
Description: A first soup was prepared by adding 2 g/L (4.57 mmol/L) 1-deoxy-D-fructosyl-N-glutamyl-threonine in the soup base described above under Example 4. A second soup was prepared by adding the corresponding same molar concentrations of glucose and glutamyl-threonine to the same soup base. The resulting soups were then evaluated by 6 panelists following the same procedure than described above under Example 4.

[4] = Seasoning compositions: tomato soups with added compound; conditions: tomato soup, 0.5 g/L or 2.5 g/L, versus reference soups without the compounds
Description: Tomato soups can be prepared by dissolving 6 g tomato base powder as can be obtained in the commerce in 500 mL hot water. 1-deoxy-D-fructosyl-N-glutamyl-threonine or alternatively 1-deoxy-D-fructosyl-N-glutamyl-serine can be added at a concentration of 0.5 g/L or 2.5 g/L to the soups in order to improve their taste and flavor profile. […] For example, a similar tomato soup can now be prepared which has the same saltiness as the reference tomato soup but comprising less sodium chloride.

Compound	perceived saltiness of the aqueous solution versus the reference samples [1]	bitterness [2]	saltiness ([2]; FIG. 1)	meaty taste ([2]; clear trend)	umami taste ([2]; clear trend)	salty and umami taste, tasted with nose-clips [3]	savory flavors, tasted without nose-clips [3]	perceived saltiness [4]	umami [4]	taste of the aqueous solution [1]
CC(O)[C@H](NC(=O)[C@H](CCC(=O)O)NCC1(O)OCC(O)C(O)C1O)C(=O)O (stereo partly drawn) [1-deoxy-D-fructosyl-N-glutamyl-threonine]	much more salty	decreased	significantly increased	improved	improved	significantly more salty and umami	clearly more enhanced savory flavors	more salty	more pronounced umami	–
C[C@@H](O)[C@H](NC(=O)[C@@H](N)CCC(=O)O)C(=O)O [glutamyl-threonine, reference compound] (H-Glu-Thr-OH)	–	–	–	–	–	–	–	–	–	slightly umami and salty
